The text below walks through data of patent US20240116985A1, “STAPLED PEPTIDES AND METHODS THEREOF” (priority 2020, published 2024).

One may read the IC50 as the concentration needed to halve the response being measured.

The target in assay [1] is T1, full-length beta-Catenin (Uniprot ID P35222) (Homo sapiens, UniProt P35222).
T1 construct: 10 nM full-length beta-Catenin (Uniprot ID P35222)
T1 sequence (P35222 1-781): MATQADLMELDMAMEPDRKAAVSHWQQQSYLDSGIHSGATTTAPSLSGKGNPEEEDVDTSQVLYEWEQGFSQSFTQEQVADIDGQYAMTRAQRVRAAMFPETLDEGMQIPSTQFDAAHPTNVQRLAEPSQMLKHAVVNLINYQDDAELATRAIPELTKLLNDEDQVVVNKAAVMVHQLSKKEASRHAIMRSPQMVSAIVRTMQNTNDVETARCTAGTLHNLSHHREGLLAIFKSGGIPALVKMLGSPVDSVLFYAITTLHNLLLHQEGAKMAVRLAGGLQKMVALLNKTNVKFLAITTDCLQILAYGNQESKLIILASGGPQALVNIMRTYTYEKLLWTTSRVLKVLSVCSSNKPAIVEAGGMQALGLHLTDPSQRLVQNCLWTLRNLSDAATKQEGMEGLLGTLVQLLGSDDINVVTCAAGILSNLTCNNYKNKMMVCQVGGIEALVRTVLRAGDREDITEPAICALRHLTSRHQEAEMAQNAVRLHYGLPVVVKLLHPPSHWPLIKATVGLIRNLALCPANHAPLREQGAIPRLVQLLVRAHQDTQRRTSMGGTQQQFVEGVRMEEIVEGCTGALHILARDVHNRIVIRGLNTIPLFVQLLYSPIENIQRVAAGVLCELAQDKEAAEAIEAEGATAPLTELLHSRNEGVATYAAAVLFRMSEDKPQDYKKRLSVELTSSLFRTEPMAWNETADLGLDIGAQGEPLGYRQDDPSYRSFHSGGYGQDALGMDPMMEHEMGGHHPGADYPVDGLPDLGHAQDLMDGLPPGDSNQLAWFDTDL
The assay is described as follows: Fluorescence polarization IC50 (beta-catenin / 5FAM-TCF4 10-53 competition). The class given is binding. The conditions noted are these: fluorescence polarization; read-out: beta-Catenin FP IC50. Background: In fluorescence polarisation assays a small probe gives low polarisation when free and higher when bound to something large.

Assay [2] addresses T2, beta-catenin/TCF4 engagement (Homo sapiens, UniProt P35222).
T2 construct: expressed in transfected cells; host or cells: HEK293
T2 sequence (P35222 1-781): T1 sequence (P35222 1-781)
Description: Nano-BRET target engagement assay (B-cat-Halo & TCF4-Luc in HEK293 cells). The conditions noted are these: absolute IC50; read-out: NanoBRET Abs IC50. The assay is classed as cell-based. For orientation: In BRET a luciferase serves as donor, and the signal depends on an acceptor being close.

The test system of assay [3] is TCF/LEF luciferase Reporter in DLD1 cells. Description: TCF reporter assay (DLD1 TCF/LEF luciferase reporter, Bright-Glo). The assay is classed as cell-based. The conditions noted are these: absolute IC50. An excerpt:
Those skilled in the art will appreciate that other suitable reagents may be utilized and various parameters may be adjusted.
DLD1 reporter cell line was generated by using TCF/LEF luciferase Reporter Lentivirus (BPS Bioscience Catalog #79787). Parental DLD1 cells (ATCC@ CCL-221) were transfected with the lentivirus and followed by 3-day puromycin selection. Single clone was selected for Reporter assay.
On Day 1, cultured cells in flasks that are no more than about 60-70% confluent were washed with PBS and typsinized in 3 mL/T75 until cells were free floating. Spin down cells for 5 minutes at 1100RPM. While cells spin, determine the number of plates (3 compounds per plate) needed. After spinning, aspirate the supernatant gently and add 10 mL media (RPMI+4% FBS), and re-suspend and mix the cells gently. Count the cells twice in the cell counter Countess and take average of both the counts, and determine how many cells are needed. After plating cells at 5000 cells/well, seal with aerseal film. 90 uL cells/well. Incubate at 37° C. overnight, tap gently to mix and don't stack plates.
On Day 2, compounds were added. Stock solution was 10 mM. Make the DMSO containing media by adding 36 uL DMSO to 10 mL of media. Make the dilution wells by transferring 100 uL DMSO+Media into rows B-F of a protein LoBind 96-well plate. Row G is empty. Add any extra DMSO+media to row H. Transfer 4 uL of stock solution to Row A. One compound per column. Add 196 uL media to Row A, no DMSO in the media. Concentration of Row A was 200 uM. Mix well and do a 6 pt, 1:2 serial dilution, mix ×10 per transfer and change tips before each transfer. Removed excess volume from final well (row F) and discard. Transfer 10 uL of the compound containing media to cells with a multichannel according to plate maps. Add 60 uL DMSO containing media to the DMSO wells. The edge wells were typically not used in the assay and could be ignored if needed or replaced with PBS, but there typically were liquids in the wells. Cover plates with breathable plate sealer and incubate overnight.
A 96-well plate may be utilized to prepare dilution series for up to 12 compounds, each with several concentrations (e.g., 200, 100, 50, 25, 12.5, 6.25 and 0 uM; can be utilized as 100× depending on final test concentrations).
0 uM is the DMSO control for the whole plate. Edge well filled with 90 uL cells+10 uL DMSO containing media.
On Day 3, luciferase levels were assessed using Bright-Glo (Promega). Equilibrate Bright-Glo to room temperature before addition. 7 mL of mixed Bright-Gbo per plate. Unused Bright-Glo could be store at −80° C. Reconstituted reagent can be stored for up to 1 month at −80° C., or after one freeze-thaw. When ready to read, remove plates from incubator and let sit at room temperature for 15 minutes. Typically stagger taking out plates if reading multiple plates before adding the Bright-Glo. Add 90 uL/well Bright-Glo and shake gently for 3 minutes. Read luminescence on GloMax immediately using ‘BrightGlo’ programs.
Cellular activity was assessed using CTG. Equilibrate CTG reagents to room temperature. Equilibrate plates to room temp, e.g. 15 min. Use same time length for all plates. Add CTG reagent, 25 uL if using undiluted, or 90 uL if diluted 1 to 4. Shake for 2 min to induce cell lysis. Allow plate to incubate at RT for 10 min to stabilize lumine sent signal. Read luminesence using program ‘CellTiter-Glo’. Use Prism to find the Absolute IC50 (AbsIC50=X[50]) of each compound.
In general terms: In a reporter assay the amount or activity of a reporter protein is the signal.

[4] abbreviates: read-out: DLD1 reporter assay Abs IC50.
[5] abbreviates: read-out: DLD1 4% Abs IC50, DLD1 reporter, 4%.
Where [6] appears, read: read-out: DLD1 4% Abs IC50, DLD1 reporter assay, 4%.

Like-named read-outs stand apart in the source and are kept apart here.

For the molecule `CC(=O)N1CCC[C@]12CC=CCCCC1(CCCC=CCCCOC(=O)N3CC[C@@](C(=O)N[C@@H](Cc4ccccc4Cl)C(=O)N[C@@H](Cc4csc5ccccc45)C(=O)N[C@H](CO)[C@@H](C)O)(C3)NC(=O)[C@H]([C@@H](C)O)NC(=O)[C@H](Cc3ccccc3)NC(=O)[C@H](C)NC(=O)[C@H](C)NC(=O)[C@H](CC(=O)O)NC(=O)[C@H](CC(=O)O)NC1=O)NC(=O)[C@H](CC(C)(C)C)NC(=O)[C@H](CC(=O)O)NC2=O` (stereo partly drawn) [I-1245, Ac-PL3-Asp-Npg-B5-Asp-Asp-Ala-Ala-Phe-Thr-PyrS2-2C1F-BztA-Thro1], the 50% inhibitory concentration (IC50) stood at 0.009 µM in assay [1], 12.2 µM in assay [2], 7.3 µM in assay [3] (setting [4]) and 4.1 µM in assay [3] (setting [5]).

Take `CC(=O)N1CCC[C@]12CC=CCCCC1(CCCC=CCCCOC(=O)N3CC[C@@](C(=O)N[C@@H](Cc4ccccc4Cl)C(=O)N[C@@H](Cc4csc5ccccc45)C(=O)N[C@@H](C)CO)(C3)NC(=O)[C@H]([C@@H](C)O)NC(=O)[C@H](Cc3ccccc3)NC(=O)[C@H](C)NC(=O)[C@H](C)NC(=O)[C@H](CC(=O)O)NC(=O)[C@H](CC(=O)O)NC1=O)NC(=O)[C@H](CC(C)(C)C)NC(=O)[C@H](CC(=O)O)NC2=O` (stereo partly drawn) [I-1246, Ac-PL3-Asp-Npg-B5-Asp-Asp-Ala-Ala-Phe-Thr-PyrS2-2C1F-BztA-Alao1]: the IC50 in assay [1] came out at 0.013 µM; in assay [2] it was 24.3 µM; in assay [3] (setting [4]), 15.9 µM; in assay [3] (setting [5]), 16.2 µM.

On to `CC(=O)N1CCC[C@]12CC=CCCCC1(CCCC=CCCCOC(=O)N3CC[C@@](C(=O)N[C@@H](Cc4ccccc4Cl)C(=O)N[C@@H](Cc4csc5ccccc45)C(=O)N[C@H](CO)CC(C)C)(C3)NC(=O)[C@H]([C@@H](C)O)NC(=O)[C@H](Cc3ccccc3)NC(=O)[C@H](C)NC(=O)[C@H](C)NC(=O)[C@H](CC(=O)O)NC(=O)[C@H](CC(=O)O)NC1=O)NC(=O)[C@H](CC(C)(C)C)NC(=O)[C@H](CC(=O)O)NC2=O` (stereo partly drawn) [I-1247, Ac-PL3-Asp-Npg-B5-Asp-Asp-Ala-Ala-Phe-Thr-PyrS2-2C1F-BztA-Leuo1], for which the concentration for half-maximal inhibition (IC50) in assay [1] is 0.033 µM; in assay [2], > 20 µM; in assay [3] (setting [4]) it was > 20 µM.

Regarding `CC(=O)N1CCC[C@]12CC=CCCCC1(CCCC=CCCCOC(=O)N3CC[C@@](C(=O)N[C@@H](Cc4ccsc4)C(=O)N[C@@H](Cc4csc5ccccc45)C(=O)N[C@H](CO)[C@@H](C)O)(C3)NC(=O)[C@H](CC(C)C)NC(=O)[C@H](Cc3ccccc3)NC(=O)[C@H](C)NC(=O)[C@H](C)NC(=O)[C@H](CC(=O)O)NC(=O)[C@H](CC(=O)O)NC1=O)NC(=O)[C@H](CC(C)(C)C)NC(=O)[C@H](CC(=O)O)NC2=O` (stereo partly drawn) [I-1302, Ac-PL3-Asp-Npg-B5-Asp-Asp-Ala-Ala-Phe-Leu-PyrS2-3Thi-BztA-Thro1], the IC50 in assay [1] amounted to 0.045 µM; in assay [2], 21.4 µM; in assay [3] (setting [5]), 4 µM.

Regarding `CC(=O)N1CCC[C@]12CC=CCCCC1(CCCC=CCCCOC(=O)N3CC[C@@](C(=O)N[C@@H](Cc4ccccc4C(F)(F)F)C(=O)N[C@@H](Cc4csc5ccccc45)C(=O)N[C@@H](CCC(N)=O)C(N)=O)(C3)NC(=O)[C@H](CC(C)C)NC(=O)[C@H](Cc3ccccc3)NC(=O)[C@H](C)NC(=O)[C@H](C)NC(=O)[C@H](CC(=O)O)NC(=O)[C@H](CC(=O)O)NC1=O)NC(=O)[C@H](CC(C)(C)C)NC(=O)[C@H](CC(=O)O)NC2=O` (stereo partly drawn) [I-1318, Ac-PL3-Asp-Npg-B5-Asp-Asp-Ala-Ala-Phe-Leu-PyrS2-2F3MeF-BztA-Gln-NH2], the IC50 worked out at 0.014 µM in assay [1], 4.8 µM in assay [2] and 3.9 µM in assay [3] (setting [5]).

Take `CC(=O)N1CCC[C@]12CC=CCCCC1(CCCC=CCCCOC(=O)N3CC[C@@](C(=O)N[C@@H](Cc4ccsc4)C(=O)N[C@@H](Cc4csc5ccccc45)C(=O)N[C@@H](CCC(N)=O)C(N)=O)(C3)NC(=O)[C@H](CC(C)C)NC(=O)[C@H](Cc3ccccc3)NC(=O)[C@H](C)NC(=O)[C@H](C)NC(=O)[C@H](CN(CC(=O)O)CC(F)(F)F)NC(=O)[C@H](CC(=O)O)NC1=O)NC(=O)[C@H](CC(C)(C)C)NC(=O)[C@H](CC(=O)O)NC2=O` (stereo partly drawn) [I-1461, Ac-PL3-Asp-Npg-B5-Asp-TfeGA-Ala-Ala-Phe-Leu-PyrS2-3Thi-BztA-Gln-NH2]: the results for the IC50 in assay [1], in assay [2] and in assay [3] (setting [5]) were 0.01 µM, 3.7 µM and 1.7 µM, respectively.

As to `CC(=O)N1CCC[C@]12CC=CCCCC1(CCCC=CCCCOC(=O)N3CC[C@@](C(=O)N[C@@H](Cc4ccccc4C(F)(F)F)C(=O)N[C@@H](Cc4csc5ccccc45)C(=O)N[C@@H](CC(=O)N4CCN(C)CC4)C(N)=O)(C3)NC(=O)[C@H](CC(C)C)NC(=O)[C@H](Cc3ccccc3)NC(=O)[C@H](C)NC(=O)[C@H](C)NC(=O)[C@H](Cc3cccc(C(=O)O)c3)NC(=O)[C@H](CC(=O)O)NC1=O)NC(=O)[C@H](CC(C)(C)C)NC(=O)[C@H](CC(=O)O)NC2=O` (stereo partly drawn) [I-1612, Ac-PL3-Asp-Npg-B5-Asp-3COOHF-Ala-Ala-Phe-Leu-PyrS2-2F3MeF-BztA-MePpzAsn-NH2], the IC50 in assay [1] came out at 0.01 µM; in assay [2], 5.3 µM; in assay [3] (setting [6]) it was 4 µM.

In the case of `CC(=O)N1CCC[C@]12CC=CCCCC1(CCCC=CCCCOC(=O)N3CC[C@@](C(=O)N[C@@H](Cc4ccccc4C(F)(F)F)C(=O)N[C@@H](Cc4csc5ccccc45)C(=O)N[C@@H](CCCCNC(C)C)C(N)=O)(C3)NC(=O)[C@H](CC(C)C)NC(=O)[C@H](Cc3ccccc3)NC(=O)[C@H](C)NC(=O)[C@H](C)NC(=O)[C@H](Cc3cccc(C(=O)O)c3)NC(=O)[C@H](CC(=O)O)NC1=O)NC(=O)[C@H](CC(C)(C)C)NC(=O)[C@H](CC(=O)O)NC2=O` (stereo partly drawn) [I-1616, Ac-PL3-Asp-Npg-B5-Asp-3COOHF-Ala-Ala-Phe-Leu-PyrS2-2F3MeF-BztA-iPrLys-NH2], the IC50 in assay [1] is 0.013 µM; in assay [2], 4.5 µM; in assay [3] (setting [6]), 2.8 µM.
